From patent US20100215618A1, “NOVEL COMPOUNDS - 644” (Arrow Therapeutics Limited, priority 2009, published 2010)
Like-named read-outs stand apart in the source and are kept apart here.

Key:
[1] = tested on: HCV replicon cells Huh 9B (genotype 1b); assay: 1b Replicon Assay (luciferase readout); type: cell-based; conditions: Hepatitis C virus, Huh 9B replicon cells, 72 h, luciferase activity
Protocol: HCV replicon cells Huh 9B (ReBlikon), containing the firefly luciferase-ubiquitin-neomycin phosphotransferase fusion protein and EMCV-IRES driven HCV polyprotein with cell culture adaptive mutations.
Cells were cultured at 37° C./5% CO2 and split twice a week. G418 at 0.5 mg/ml was added to the culture medium but not the assay medium.
The culture medium consisted of DMEM with […] glucose and Glutamax (Gibco 61965-026) supplemented with 1× non-essential amino acids (Invitrogen 11140-035), 0.5 mg/ml G418 (Invitrogen 10131-027) and 10% Australian foetal calf serum (Invitrogen 10099-141).
Replicon cells were trypsinised and counted. Cells were diluted to 100,000 cells/ml and 100 μl used to seed one opaque white 96-well plate (for the replicon assay) and one flat-bottomed clear plate (for the tox assay) for every five compounds to be tested for IC50. Wells G12 and H12 were left empty in the clear plate as the blank. Plates were then incubated at 37° C./5% CO2 for 24 h.
On the following day compound dilutions were prepared in medium at twice their desired final concentration in a clear round bottomed plate. All dilutions have a final DMSO concentration of 1%.
Controls and compounds were transferred from the dilution plates to the assay plates (containing the cells) at 100 μl/well in duplicate wells.
Exception: no compound was added to wells A1 and A2 of either plate and 100 μl of 1% DMSO was added to these instead. Plates were then incubated at 37° C./5% CO2 for 72 h.
At the end of the incubation time, the cells in the white plate were washed in PBS (100 μL per well) and dried by tapping before addition of 204 per well of lysis buffer (25 mM tris-phosphate, 8 mM MgCl2, 1 mM DTT, 1% Triton X-100, 15% glycerol; pH to 7.8 using KH2PO4 prior to Triton X-100 and glycerol addition). Aliquots of substrate (23.5 mM beetle luciferin (Promega E1603), 26 mM ATP (Sigma O-2060) in […] Tris buffer pH 7.8) were stored at −80° C. Prior to use, required amount of luciferin was thawed and diluted 1:50 in luciferase assay buffer (20 mM Tricine (Sigma T-0377), 1.07 mM magnesium carbonate hydroxide (Sigma M-5671), 0.1 mM EDTA (Sigma E-5134), 2.67 mM MgSO4(BDH 101514Y), 33.3 mM dithiothreitol (Sigma 150460) pH 7.8).
After 5-60 min incubation in lysis buffer at room temperature, a plate was inserted into the luminometer and 100 μl luciferase assay reagent was added by the injector of the luminometer. The signal was measured using a 1 second delay followed by a 4 second measurement programme. The IC50, the concentration of the drug required for reducing the replicon level by 50% in relation to the untreated cell control value, was calculated from the plot of the percentage reduction of the luciferase activity vs. drug concentration.

[2] = tested on: HCV genotype 1a replicon cells Htat2ANeo; assay: 1a Replicon Assay (cell-based anti-NS5a ELISA); conditions: Hepatitis C virus, 72 h
Protocol: HCV genotype la replicon cells Htat2ANeo (University of Texas), containing neomycin phosphotransferase fusion protein and EMCV-IRES driven HCV polyprotein with cell culture adaptive mutations, and control cells, Et2AN.
Cells were cultured at 37° C./5% CO2 and split twice a week. G418 at 0.5 mg/ml and Blastocidin at 2 mg/ml were added to the culture medium but not the assay medium.
The culture medium consisted of DMEM with […] glucose and Glutamax (Gibco 61965-026) supplemented with 1× non-essential amino acids (Invitrogen 11140-035), 0.5 mg/ml G418 (Invitrogen 10131-027), 2 mg/ml Blastocidin (PAA) and 10% is Australian foetal calf serum (Invitrogen 10099-141).
Replicon and control cells were trypsinised and counted. Replicon cells were diluted to 90,000 cells/ml and 100 μl of this used to seed columns 2-4, […] and 10-12 of a black, clear bottom 96-well plate for every three compounds to be tested for IC50. Control cells were diluted to 60,000 cells/ml and 100 μl of this used to seed columns 1, 5 and 9 of the plate. Well H1 was left empty as the blank. Plates were then incubated at 37° C./5% CO2 for 24 h.
On the following day compound dilutions were prepared in medium at twice their desired final concentration in a clear round bottomed plate.
Controls and compounds were transferred from the dilution plate to the assay plates (containing the cells) at 100 μl/well in quadruplicate wells, one well containing control cells and 3 wells containing replicon cells.
Exception: no compound was added to row H of the plate and 100 μl of 1% DMSO was added to these instead. Plates were then incubated at 37° C. with 5% CO2 for 72 h. At the end of the incubation time, any reduction in cell viability was assayed and a cell-based enzyme linked immunosorbent assay (ELISA) was performed. The media/compound was removed from all wells and replaced with 100 μl/well serum-free media and 20 μl/well Cell Titre Blue (Promega G8081). Following incubation at 37° C./5% CO2 for 2 h plates were read on a microplate fluorometer (Molecular Devices) using an excitation of 570 nm and an emission of 590 nm The TD50, the concentration of drug required to reduce 50% of Cell Titre Blue relative to the DMSO controls, was calculated by plotting the fluorescence at 590 nm after substraction of background against drug concentration.
The media/Cell Titre Blue was removed and plates washed in PBS and gently tapped dry before addition of 50 μL per well of 75% acetone/25% methanol mixture for 3 minutes. The fixative was then discarded and wells were washed with PBS before addition of 100 μl/well of blocking solution (2% non-fat dry milk and 0.05% Tween-20 in 0.85% NaCl). Plates were then incubated at 37° C. in a shaking incubator for 60 min. Blocking solution was discarded and 50 μl of mouse anti-NS5a antibody (Virostat 1877) at 1:100 dilution in blocking buffer was added to all wells. Plates were incubated at 37° C. in a shaking incubator for 90 min Antibody was then discarded and plates were washed 4 times by immersion in 0.85% NaCl/0.05% Tween-20. After washing plates were tapped dry gently and 50 μl of secondary antibody (Dako P0260 Rabbit anti-mouse horseradish peroxidase) at 1:1000 dilution in blocking buffer was added to the wells. Plates were incubated at 37° C. in a shaking incubator for 60 min. Antibody was discarded and plates were washed 6 times by immersion in 0.85% NaCl/0.05% Tween-20 and once in PBS. Finally, 50 μl of substrate (SigmaFast ortho-phenylene diamine dihydrochloride (OPD)) was added per well and the colorimetric reaction was allowed to proceed in the dark for 5 to 15 minutes depending on the strength or the signal. The reaction was stopped by addition of 25 μl/well of 20% sulphuric acid. Plates were read on the SpectraMax microplate reader at 490 nm fixed wavelength. […]

[3] = read-out: pIC50 1b Replicon (converted)
[4] = read-out: pIC50 1a Replicon (converted)

SMILES	IC50 ([1]; read-out: HCV IC50 1b Replicon) [nM]	IC50 [1, 3] [nM]	IC50 ([2]; read-out: HCV IC50 Elisa 1a) [nM]	IC50 [2, 4] [nM]
COC(=O)N[C@H](C(=O)N1CCC[C@H]1c1ncc(-c2cccc(-c3ccc(C(=O)Nc4ccc(CN5CCS(=O)(=O)CC5)cc4)cc3)c2)[nH]1)C(C)(C)C [Example 35, Methyl N-[(1S)-1-[(2S)-2-[5-[3-[4-[[4-[(1,1-dioxo-1,4-thiazinan-4-yl)methyl]phenyl]carbamoyl]phenyl]phenyl]-1H-imidazol-2-yl]pyrrolidine-1-carbonyl]-2,2-dimethyl-propyl]carbamate]	129	129	–	–
CC(C)[C@H](N)C(=O)N1CCC[C@H]1c1ncc(-c2ccc(-c3ccc(C(=O)Nc4ccc(CN5CCS(=O)(=O)CC5)cc4)cc3)cc2)[nH]1 [Example 10, 4-[4-[2-[(2S)-1-[(2S)-2-amino-3-methyl-butanoyl]pyrrolidin-2-yl]-1H-imidazol-5-yl]phenyl]-N-[4-[(1,1-dioxo-1,4-thiazinan-4-yl)methyl]phenyl]benzamide]	65.2	64.6	320	324
COC(=O)N[C@H](C(=O)N1CCC[C@@H]1c1ncc(-c2ccc(-c3ccc(C(=O)Nc4ccc(CN5CCS(=O)(=O)CC5)cc4)cc3)cc2)[nH]1)c1ccccc1 [Example 23, Methyl N-[(1S)-2-[(2R)-2-[5-[4-[4-[[4-[(1,1-dioxo-1,4-thiazinan-4-yl)methyl]phenyl]carbamoyl]phenyl]phenyl]-1H-imidazol-2-yl]pyrrolidin-1-yl]-2-oxo-1-phenyl-ethyl]carbamate]	109	110	–	–
COC(=O)N[C@@H](C(=O)N1CCC[C@H]1c1ncc(-c2cccc(-c3ccc(C(=O)Nc4ccc(CN5CCS(=O)(=O)CC5)cc4)cc3)c2)[nH]1)c1ccccc1 [Example 37, Methyl N-[(1R)-2-[(2S)-2-[5-[3-[4-[[4-[(1,1-dioxo-1,4-thiazinan-4-yl)methyl]phenyl]carbamoyl]phenyl]phenyl]-1H-imidazol-2-yl]pyrrolidin-1-yl]-2-oxo-1-phenyl-ethyl]carbamate]	21.5	21.4	–	–
COC(=O)N[C@H](C(=O)N1CCC[C@H]1c1ncc(-c2cccc(-c3ccc(C(=O)Nc4ccc(CN5CCS(=O)(=O)CC5)cc4)cc3)c2)[nH]1)c1ccccc1 [Example 36, Methyl N-[(1S)-2-[(2S)-2-[5-[3-[4-[[4-[(1,1-dioxo-1,4-thiazinan-4-yl)methyl]phenyl]carbamoyl]phenyl]phenyl]-1H-imidazol-2-yl]pyrrolidin-1-yl]-2-oxo-1-phenyl-ethyl]carbamate]	15.6	15.5	–	–
CCN(CC)[C@@H](C(=O)N1CCC[C@@H]1c1ncc(-c2ccc(-c3ccc(C(=O)Nc4ccc(CN5CCS(=O)(=O)CC5)cc4)cc3)cc2)[nH]1)c1ccccc1 [Example 25, 4-[4-[2-[(2R)-1-[(2R)-2-(diethylamino)-2-phenyl-acetyl]pyrrolidin-2-yl]-1H-imidazol-5-yl]phenyl]-N-[4-[(1,1-dioxo-1,4-thiazinan-4-yl)methyl]phenyl]benzamide]	77.9	77.6	–	–
COC(=O)N[C@H](C(=O)N1CCCC[C@H]1c1ncc(-c2ccc(-c3ccc(C(=O)Nc4ccc(CN5CCS(=O)(=O)CC5)cc4)cc3)cc2)[nH]1)C(C)C [Example 50, methyl N-[(1S)-1-[(2S)-2-[5-[4-[4-[[4-[(1,1-dioxo-1,4-thiazinan-4-yl)methyl]phenyl]carbamoyl]phenyl]phenyl]-1H-imidazol-2-yl]piperidine-1-carbonyl]-2-methyl-propyl]carbamate]	2.98	2.95	28.2	28.2
CN(C)[C@@H](C(=O)N1CCC[C@@H]1c1ncc(-c2ccc(-c3ccc(C(=O)Nc4ccc(CN5CCS(=O)(=O)CC5)cc4)cc3)cc2)[nH]1)c1ccccc1 [Example 26, 4-[4-[2-[(2R)-1-[(2R)-2-(dimethylamino)-2-phenyl-acetyl]pyrrolidin-2-yl]-1H-imidazol-5-yl]phenyl]-N-[4-[(1,1-dioxo-1,4-thiazinan-4-yl)methyl]phenyl]benzamide]	55.7	56.2	–	–
COC(=O)N[C@@H](C)C(=O)N1CCC[C@H]1c1ncc(-c2cccc(-c3ccc(C(=O)Nc4ccc(CN5CCS(=O)(=O)CC5)cc4)cc3)c2)[nH]1 [Example 34, Methyl N-[(1S)-2-[(2S)-2-[5-[3-[4-[[4-[(1,1-dioxo-1,4-thiazinan-4-yl)methyl]phenyl]carbamoyl]phenyl]phenyl]-1H-imidazol-2-yl]pyrrolidin-1-yl]-1-methyl-2-oxo-ethyl]carbamate]	252	251	–	–
COC(=O)N[C@@H](C(=O)N1CCC[C@@H]1c1ncc(-c2ccc(-c3ccc(C(=O)Nc4ccc(CN5CCS(=O)(=O)CC5)cc4)cc3)cc2)[nH]1)c1ccccc1 [Example 24, Methyl N-[(1R)-2-[(2R)-2-[5-[4-[4-[[4-[(1,1-dioxo-1,4-thiazinan-4-yl)methyl]phenyl]carbamoyl]phenyl]phenyl]-1H-imidazol-2-yl]pyrrolidin-1-yl]-2-oxo-1-phenyl-ethyl]carbamate]	101	102	–	–
COC(=O)N[C@H](C(=O)N1CCC[C@H]1c1ncc(-c2cccc(-c3ccc(C(=O)Nc4ccc(CN5CCS(=O)(=O)CC5)cc4)cc3)c2)[nH]1)C(C)C [Example 33, Methyl N-[(1S)-1-[(2S)-2-[5-[3-[4-[[4-[(1,1-dioxo-1,4-thiazinan-4-yl)methyl]phenyl]carbamoyl]phenyl]phenyl]-1H-imidazol-2-yl]pyrrolidine-1-carbonyl]-2-methyl-propyl]carbamate]	159	158	–	–
